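Exposure lasted 48 hours, with cells grown in 96-well plates and compounds tested at five concentrations. TGI: concentration producing complete growth inhibition.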
Key:
Test in all cases: DTP human tumour cell line panel, 48 h
[1] = test system: EKVX NSCLC
[2] = test system: MDA-MB-435
[3] = test system: SK-OV-3 ovarian
[4] = test system: HOP-92 NSCLC
[5] = test system: RXF 393 renal
[6] = test system: HL-60(TB) leukemia
[7] = test system: NCI-H460 lung
[8] = test system: MDA-N
[9] = test system: KM12 colon
[10] = test system: OVCAR-5 ovarian

Measured: TGI

CC(C)CC1NC(=O)CCC(NC(=O)C(Cc2ccc(O)cc2)NC(=O)OCc2ccccc2)C(=O)NC(Cc2ccccc2)C(=O)NC(Cc2ccccc2)NC1=O (stereo not given)
> 100 µM: all assays above

— PubChem BioAssay (NCI)
